In patent US9546129B2, “DTPA prodrugs, compositions thereof, and methods of using the same” (priority 2012, dated 2017):
Converted amounts (≈) assume the structure as drawn. “And” between values parts separate entries of the source, which are not always exact repeats. Equal values may be shown once. Read-outs that look alike come from different tables or passages of the source.

Legend:
[1] = tested on: ^241Am contaminated dogs (nose-only inhalation); assay: Efficacy study in dogs, preliminary ^241Am recovery in urine and liver; assay type: in vivo, dog; conditions: for Total Recovered Activity, Liver, Treatment Mean / Total Recovered Activity, Urine, Treatment Mean: dogs; for Total Recovered Activity, Liver / Total Recovered Activity, Urine: individual animals
Protocol: Dogs were administered ^241Am (target of 3 μCi/animal) by nose-only inhalation on Day 0. […] Group 1 was a control and was used for determining the unperturbed biokinetics. Fourteen (14) days post C2E2 administration, the animals were sedated and euthanized. Preliminary urinary excretion and liver retention data were obtained (Table 8).

[2] = Precipitation / solubility study in pH 3.0 buffer; assay type: physicochemical
Protocol: A precipitation study was performed to estimate the concentration at which no precipitation occurs. Initially, 12 samples of C2E2 were prepared at concentrations ranging from 40-150 mg/mL in pH 3.0 buffer in steps of 10 mg/mL. The solutions were left to stir until precipitation occurred.
Three samples of C2E2 at 60, 70 and 100 mg/mL in pH 3.0 buffer were prepared and stirred at room temperature. At 0.083, […], 1, 2, 4, 6, 20, 24 and 44 hours 0.5 mL samples were withdrawn centrifuged at 14,000×g and the concentration of supernatant measured by HPLC-CAD. At each time-point the pH of the supernatant was also measured.

[3] = Stability of C2E2 in plasma (rat); assay type: in vitro ADME; conditions: 37° C., up to two hours
Protocol: Prior to the study, 975 μL of plasma (Rat, Beagle and Human) was preheated to 37° C. in Eppendorff tubes and the test compound (C2E2) was prepared in DI water (10 mg/mL). The C2E2 was from Lot 050 obtained using Method 2. To initiate the study, 25 μL of the C2E2 solution was added to the pre-heated plasma and briefly vortexed, to mix. At 0, 15, 30, 60 and 120 minutes a 100 μL sample of plasma was taken, an equal volume of cold acetonitrile was added and mixed to precipitate plasma proteins. Samples were centrifuged at 4° C. and 14,000×g for 10 minutes to remove precipitated proteins, the supernatant was collected and the C2E2 concentration determined by HPLC-CAD. All conditions were repeated in triplicate.
HPLC Detection Methods: C2E2 analysis was performed on a prominence HPLC (Shimadzu Corporation, Kyoto, Japan) equipped with a Corona Ultra charged […] detector (CAD) (Thermo scientific, Sunnyvale, Calif.). […]
The gradient is 0.01-34.99 min: 22% B; 35.00-44.99 min: 33% B; 45.00-60.00 min: 38% B. The flow rate is 1.0 mL/min, a Thermo Hypersil ODS column (150 mm 4.6 mm i.d. with 5.0 μm particles) will be used, injection volume will be 10 μL and column oven temperature maintained at 25° C. […] The limit of quantification is 0.35 μg/mL. […]

[4] = tested on: Salmonella typhimurium tester strains TA98, TA100, TA1535, and TA1537; assay: Bacterial Reverse Mutation Assay (Salmonella); assay type: cell-based
Protocol: The objective of this study was to evaluate C2E2 for its ability to induce reverse mutations at the histidine locus in Salmonella typhimurium tester strains TA98, TA100, TA1535, and TA1537, and at the tryptophan locus of Escherichia coli (E. coli) strain WP2uvrA in the presence or absence of an exogenous mammalian metabolic activation system (S9).
C2E2 was evaluated in an initial mutagenicity assay in all five tester strains at dose levels of 5.00, 16.0, 50.0, 160, 500, 1600, and 5000 μg/plate with and without S9. C2E2 was from Lot 050 obtained using Method 2. C2E2 was prepared in Cell Culture Grade Water vehicle and formed a transparent colorless solution. […] The reductions in the numbers of revertant colonies and the enhanced background lawn growth are indicative of C2E2 treatment-related toxicity. With exception to the enhanced background lawn in TA1537 without S9, all other background lawns in all strains, with and without S9, were normal indicating there was appropriate bacterial growth during treatment to express a mutagenic event. There were no relevant increases in the numbers of revertant colonies observed at any dose level with any strain in the absence or presence of S9 metabolic activation.

[5] = Gadolinium complex stability constant by titration; assay type: binding; conditions: 3-5 mM in 0.1 M KCl, equimolar gadolinium chloride
Protocol: The stability constant for a complex between C2E2 and gadolinium (i.e., the C2E2-Gd complex) was determined by titration. C2E2 solutions (3-5 mM) were prepared in 0.1 M KCl. Gadolinium chloride was added in equimolar concentrations. The experiment consisted of a titration with base, followed by a titration with acid. After each addition of titrant, a 30 second equilibration time passed before pH measurement with a Seven Easy pH meter and (Ag/AgCl reference) glass electrode (Metler Tolledo). The pKa values previously determined, as described in Example 9, were used to calculate the gadolinium stability constant using […] software. The stability of the C2E2-Gd complex was log K 17.34±1.13, which lies between those of EDTA and DTPA (17.0 and 22.5, respectively).

[6] = C2E2 100 mg/kg oral, female dogs
[7] = C2E2 100 mg/kg oral, female dogs, 100 mg/kg
[8] = C2E2 100 mg/kg oral, male dogs, 100 mg/kg
[9] = C2E2 300 mg/kg oral, female dogs
[10] = C2E2 300 mg/kg oral, female dogs, 300 mg/kg
[11] = C2E2 300 mg/kg oral, male dogs, 300 mg/kg
[12] = C2E2 500 mg/kg oral, female dogs
[13] = C2E2 500 mg/kg oral, female dogs, 500 mg/kg
[14] = C2E2 500 mg/kg oral, male dogs, 500 mg/kg

CCOC(=O)CN(CCN(CCN(CC(=O)O)CC(=O)OCC)CC(=O)O)CC(=O)O [C2E2, 6,9-bis(carboxymethyl)-3-(2-ethoxy-2-oxoethyl)-11-oxo-12-oxa-3,6,9-triazatetradecan-1-oic acid]
Total Recovered Activity, Liver, Treatment Mean ([1]; C2E2 100 mg/kg oral): 168.91 nCi
Total Recovered Activity, Urine, Treatment Mean ([1]; C2E2 100 mg/kg oral): 168.70 nCi
Total Recovered Activity, Liver, Gender Mean [1, 6]: 157.92 nCi
Total Recovered Activity, Urine, Gender Mean [1, 6]: 168.30 nCi
Total Recovered Activity, Liver [1, 7]: 186.4 nCi and 129.4 nCi
Total Recovered Activity, Urine [1, 7]: 193.85 nCi and 142.75 nCi
Total Recovered Activity, Liver, Gender Mean ([1]; C2E2 100 mg/kg oral, male dogs): 179.89 nCi
Total Recovered Activity, Urine, Gender Mean ([1]; C2E2 100 mg/kg oral, male dogs): 169.10 nCi
Total Recovered Activity, Liver [1, 8]: 213.3 nCi and 146.5 nCi
Total Recovered Activity, Urine [1, 8]: 187.57 nCi and 150.63 nCi
Total Recovered Activity, Liver, Treatment Mean ([1]; C2E2 300 mg/kg oral): 132.28 nCi
Total Recovered Activity, Urine, Treatment Mean ([1]; C2E2 300 mg/kg oral): 169.50 nCi
Total Recovered Activity, Liver, Gender Mean [1, 9]: 144.49 nCi
Total Recovered Activity, Urine, Gender Mean [1, 9]: 181.71 nCi
Total Recovered Activity, Liver [1, 10]: 87.6 nCi and 201.4 nCi
Total Recovered Activity, Urine [1, 10]: 121.32 nCi and 242.10 nCi
Total Recovered Activity, Liver, Gender Mean ([1]; C2E2 300 mg/kg oral, male dogs): 120.06 nCi
Total Recovered Activity, Urine, Gender Mean ([1]; C2E2 300 mg/kg oral, male dogs): 157.29 nCi
Total Recovered Activity, Liver [1, 11]: 109.2 nCi and 130.9 nCi
Total Recovered Activity, Urine [1, 11]: 97.24 nCi and 217.34 nCi
Total Recovered Activity, Liver, Treatment Mean ([1]; C2E2 500 mg/kg oral): 45.01 nCi
Total Recovered Activity, Urine, Treatment Mean ([1]; C2E2 500 mg/kg oral): 188.82 nCi
Total Recovered Activity, Liver, Gender Mean [1, 12]: 40.30 nCi
Total Recovered Activity, Urine, Gender Mean [1, 12]: 103.00 nCi
Total Recovered Activity, Liver [1, 13]: 34.3 nCi and 46.3 nCi
Total Recovered Activity, Urine [1, 13]: 65.39 nCi and 140.61 nCi
Total Recovered Activity, Liver, Gender Mean ([1]; C2E2 500 mg/kg oral, male dogs): 49.73 nCi
Total Recovered Activity, Urine, Gender Mean ([1]; C2E2 500 mg/kg oral, male dogs): 274.65 nCi
Total Recovered Activity, Liver [1, 14]: 49.4 nCi and 50.1 nCi
Total Recovered Activity, Urine [1, 14]: 288.78 nCi and 260.53 nCi
Time of sudden precipitation from supersaturated solution ([2]; 100 mg/ml in pH 3.0 buffer, stirred at room temperature): 20 to 24 h
solubility ([2]; Lot 050, solutions at this concentration precipitated over time, read-out: Solubility, initially determined): 100 mg/mL (≈ 222 mM)
solubility ([2]; aqueous buffer, thermodynamic from solid, pH 3.0 buffer, room temperature, read-out: Solubility at pH 3.0): 60 to 70 mg/mL (≈ 133 to 156 mM)
C2E2 concentration above which precipitation was observed ([2]; pH 3.0 buffer, 24 hours stirring then 48 hours standing at room temperature): above 60 mg/mL
C2E2 concentration above which precipitation was observed ([2]; pH 3.0 buffer, after 24 hours stirring): above 90 mg/mL
Metabolism in plasma (observation) [3]: minimal or not detected
Dose level with reductions in mean numbers of revertant colonies (toxicity) ([4]; TA100, TA1535, TA1537, without S9): 5000 μg/plate
Dose level with reductions in mean numbers of revertant colonies (toxicity) ([4]; TA1535, TA1537, with S9): ≥ 500 μg/plate
Mutagenicity (reverse mutations at the histidine locus) ([4]; up to 5000 μg/plate, with and without S9): negative
Stability of the gadolinium complex, log K [5]: 17.34±1.13
